Where a name gives a salt, the structure may show the parent alone. Read-outs that look alike come from different tables or passages of the source.
Tests used:
[1] = target: T1, Human erythrocyte acetylcholinesterase (Homo sapiens, UniProt P22303); assay: In vitro measurement of acetylcholinesterase (AChE) inhibition (Ellman method); type: biochemical; conditions: at time of peak activity, incubation 15 to 60 minutes at 37°C
T1 construct: Human erythrocyte acetylcholinesterase (type XIII, Sigma Israel); purchased Sigma Israel type XIII; host or cells: human erythrocytes
Description: Human erythrocyte acetylcholinesterase (type XIII, Sigma Israel), was prepared in a stock solution of 1U/ml, containing Triton (1%) and bovine serum albumin (0.05%) in phosphate buffer (pH 8). The enzyme (0.05U) was incubated with 3-5 different concentrations of test compound (in triplicate) for periods of from 15 to 60 minutes at 37°C. […] The percentage inhibition of AChE by each concentration of drug is calculated by comparison with that of enzyme in the absence of drug.

whole brain AChE = target: T2, whole brain AChE (Mus musculus, UniProt P21836); assay: Ex vivo measurement of brain AChE inhibition after sub-cutaneous administration; type: in vivo, mice; conditions: for ED50: sc, sub-cutaneous, mouse whole brain, at peak of activity, read-out: AChE Inhibition Ex vivo ED50 (AC)
T2 construct: the brains rapidly removed (minus cerebellum), weighed and homogenized in 0.1M phosphate buffer pH 8.0; from tissue; host or cells: mouse brain (minus cerebellum) homogenate supernatant
T2 sequence (P21836 32-614): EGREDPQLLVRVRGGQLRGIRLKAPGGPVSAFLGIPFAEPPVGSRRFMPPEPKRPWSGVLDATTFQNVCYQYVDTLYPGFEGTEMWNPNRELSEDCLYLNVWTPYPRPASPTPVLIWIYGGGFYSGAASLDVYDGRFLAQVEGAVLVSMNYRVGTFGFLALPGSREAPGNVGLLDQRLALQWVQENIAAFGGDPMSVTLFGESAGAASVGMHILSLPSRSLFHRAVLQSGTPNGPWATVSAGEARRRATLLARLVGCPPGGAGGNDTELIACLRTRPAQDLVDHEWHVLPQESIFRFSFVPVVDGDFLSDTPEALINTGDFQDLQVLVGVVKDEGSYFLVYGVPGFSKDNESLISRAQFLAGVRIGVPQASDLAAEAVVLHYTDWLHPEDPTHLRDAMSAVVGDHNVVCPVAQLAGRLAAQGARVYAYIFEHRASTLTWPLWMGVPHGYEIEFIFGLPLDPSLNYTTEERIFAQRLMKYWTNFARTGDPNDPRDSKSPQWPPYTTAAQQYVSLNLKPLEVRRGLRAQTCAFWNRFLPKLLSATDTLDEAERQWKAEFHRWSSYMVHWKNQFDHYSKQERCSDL
Description: Test drugs or saline were administered sub-cutaneously to male mice (Sabra strain, 28-35g). At least 4-5 mice were used per dose and a minimum of 3 doses per drug were tested. The mice were sacrificed 15, 30, 60, 70, 90, 120 or 180 minutes after drug administration, the brains rapidly removed (minus cerebellum), weighed and homogenized in 0.1M phosphate buffer pH 8.0, containing Triton (1mg/100g tissue) and centrifuged to remove cell debris. Aliquots (25 µl) of the supernatant were then incubated with acetylthiocholine and DTNB. AChE activity measured as described above. The % inhibition of whole brain AChE by each dose of drug was calculated by comparison with enzyme activity from 3 saline treated control mice run at the same time.

[2] = Acute toxicity in mice (sub-cutaneous, lethality within 6 hours); conditions: mouse, in vivo, sc; for selectivity ratio: LD50 divided by ED50 (acetylcholine esterase ex vivo), read-out: Therapeutic Ratio (LD/AC); for LD50 at 6 h: sub-cutaneous, mice, within 6 hours
Description: Drugs were administered sub-cutaneously in at least 3 doses, to a minimum of 10 mice per dose. […] Therapeutic Ratio was calculated as LD50 divided by ED50(acetylcholine esterase ex vivo).

MAO-A [3] = target: T3, MAO-A (Rattus norvegicus, UniProt P21396); assay: Inhibition of MAO activity in vitro, rat brain homogenate, 5-HT substrate
T3 sequence (P21396 1-526): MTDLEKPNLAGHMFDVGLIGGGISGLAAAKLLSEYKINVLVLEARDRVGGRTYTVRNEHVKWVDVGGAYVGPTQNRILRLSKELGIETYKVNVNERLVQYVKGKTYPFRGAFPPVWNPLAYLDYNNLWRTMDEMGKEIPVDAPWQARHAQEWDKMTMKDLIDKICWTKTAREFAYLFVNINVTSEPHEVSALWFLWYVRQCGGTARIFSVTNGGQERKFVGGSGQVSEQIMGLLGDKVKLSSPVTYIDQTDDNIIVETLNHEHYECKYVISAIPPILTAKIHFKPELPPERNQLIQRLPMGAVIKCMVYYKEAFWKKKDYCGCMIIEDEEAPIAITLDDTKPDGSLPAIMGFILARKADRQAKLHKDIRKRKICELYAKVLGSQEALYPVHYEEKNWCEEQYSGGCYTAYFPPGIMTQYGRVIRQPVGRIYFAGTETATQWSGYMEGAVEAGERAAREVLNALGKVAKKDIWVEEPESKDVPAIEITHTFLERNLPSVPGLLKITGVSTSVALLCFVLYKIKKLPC
Description: The MAO enzyme source was a homogenate of rat brain in 0.3M sucrose, which was centrifuged at 600G for 15 minutes. The supernatant was diluted appropriately in 0.05M phosphate buffer, and pre-incubated with serial dilutions of test compounds for 20 minutes at 37°C. ^14C-Labeled substrates (2-phenylethylamine, hereinafter PEA; 5-hydroxytryptamine, hereinafter 5-HT) were then added, and the incubation continued for a further 20 minutes (PEA), or 30-45 minutes (5-HT). Substrate concentrations used were 50µM (PEA) and 1mM (5-HT). In the case of PEA, enzyme concentration was chosen so that not more than 10% of the substrate was metabolized during the course of the reaction. The deaminated products were extracted into toluene-ethyl acetate (1:1, v/v) containing 0.6% (w/v) 2,5-diphenyloxazole prior to determination by liquid scintillation counting. Radioactivity in the eluate indicates the production of neutral and acidic metabolites formed as a result of MAO activity. Activity of MAO in the sample was expressed as a percentage of control activity in the absence of inhibitors after subtraction of appropriate blank values The activity determined using PEA as substrate is referred to as MAO-B, and that determined using 5-HT as MAO-A.

MAO-B = assay: Inhibition of MAO activity ex vivo (brain tissue), PEA substrate; type: in vivo, mice; conditions: mouse brain tissue
Description: (§1) Male Sabra mice, weighing 45-50g were injected with test compound solutions (prepared in 0.9% saline). Each dose was administered to two or three mice. The mice were sacrificed two hours after drug administration or at a time corresponding to the peak AChE inhibition time (see Table 6). The brain and liver were rapidly dissected and stored in appropriate vials on ice. The tissues were weighed, diluted to 1/20 in sucrose 0.3M and stored at -20°C before performance of the MAO assay described above. The results given in Table 6 relate to measurements made on brain tissue only.

MAO-A [4] = assay: Inhibition of MAO activity ex vivo (brain tissue), 5-HT substrate; type: in vivo, mice; conditions: mouse brain tissue
Description: as §1

mice = assay: Survival time of mice in hypobaric hypoxic episode; type: in vivo
From the text: The model is based on that described in Nakanishi, M. et al. Life Sci. (1973) 13: 467; Oshiro, et al., J. Med. Chem. (1991) 34: 2004-2013; and US Patent 4,788,130.
A 12 liter desiccator (desiccator A) and a 2.5 liter desiccator (desiccator B) were separately connected to a vacuum pump. Desiccator B was disconnected and allowed to equilibrate with room air whilst desiccator A was evacuated to a pressure of 100mmHg. Four male ICR albino mice (22-28g) were placed in desiccator B. Desiccator B was then closed to room air and connected to desiccator A. The pressure inside desiccator B was monitored using a mercury manometer and at the point the pressure in desiccator B reached 200mmHg (usually within 14 seconds), the two desiccators were disconnected from the vacuum pump and the pump switched off. The survival time from the moment of induction of hypoxia to the time of cessation of respiration was recorded. for each mouse for a maximum of 15 minutes after which time room air was reintroduced to desiccator B. Survivors were monitored for signs of lethargy or vitality.
Effect of drug treatment was assessed as the percent of the survival time of the drug treated group with respect to the saline injected or vehicle injected control group. Control groups were run twice, before and after each experimental group and consisted of 8 mice in groups of 4 mice to ensure a constant residual volume of oxygen in all tests. The effect of each dose of test drug was determined in duplicate i.e. two groups of 4 mice.
Positive reference drugs were sodium pentobarbital at a dose of 40 mg/kg, and diazepam 10 mg/kg given 0.5h prior to hypoxia, physostigmine 0.2 and 0.4 mg/kg and neostigmine 0.2 mg/kg given sc 30 min before hypoxia. Methyl atropine 1 mg/kg was given sc. 10 min. before physostigmine.
The volume of injection was 0.2-0.3 mL per mouse (10 mL/kg). The initial dose was about one third of the reported LD50 for acetylcholine esterase inhibition. If no protection could be obtained, the dose was further increased to the nearest non-toxic dose. In case of protection, the dose was further reduced in an attempt to locate the "protective" dose range.

T1 sequence (P22303 32-617 isoform P22303-2 limits assumed): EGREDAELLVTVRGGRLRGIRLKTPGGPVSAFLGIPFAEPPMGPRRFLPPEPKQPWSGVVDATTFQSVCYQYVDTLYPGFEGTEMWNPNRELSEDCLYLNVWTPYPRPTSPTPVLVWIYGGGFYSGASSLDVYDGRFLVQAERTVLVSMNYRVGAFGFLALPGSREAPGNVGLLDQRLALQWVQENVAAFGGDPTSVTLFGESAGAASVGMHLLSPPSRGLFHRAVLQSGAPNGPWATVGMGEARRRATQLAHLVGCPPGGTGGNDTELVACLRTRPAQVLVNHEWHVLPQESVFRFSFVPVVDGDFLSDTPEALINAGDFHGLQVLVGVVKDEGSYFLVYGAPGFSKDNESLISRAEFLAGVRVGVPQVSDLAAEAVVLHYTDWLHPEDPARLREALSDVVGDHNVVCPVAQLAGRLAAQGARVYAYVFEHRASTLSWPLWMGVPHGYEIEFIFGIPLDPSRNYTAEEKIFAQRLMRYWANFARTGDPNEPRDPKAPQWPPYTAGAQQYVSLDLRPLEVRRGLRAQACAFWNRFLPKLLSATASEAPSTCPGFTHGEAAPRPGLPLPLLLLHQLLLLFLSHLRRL

Structure (SMILES)	IC50 [1] [µM]	ED50 (whole brain AChE) [µmol/kg]	LD50 at 6 h [2] [µmol/kg]	MAO-B Inhibition Ex vivo ED50 (MAO-B)	MAO-A Inhibition Ex vivo ED50 (MAO-A [4])	IC50 (MAO-A [3]) [µM]	further results
CN(C)CCc1cccc(OC(=O)N(C)C)c1 [Compound 10]	0.2	2	16				Time to peak activity t (whole brain AChE; AChE inhibition): 15 to 30 min; selectivity ratio [2]: 8; IC50 (MAO-A [3]; read-out: MAO-A Inhibition In vitro IC50, rat brain homogenate, 5-HT 1mM): 51 µM
C#CC(C)NCCc1cccc(OC(=O)N(C)CC)c1 (centres unmarked) [Compound 30]	14	45		>>270 µmoles/kg	>>270 µmoles/kg		
C#CCN(C)C(C)Cc1cccc(OC(=O)N(C)CCCCCC)c1 (racemic) [Compound 27, (rac)-3-(N-methyl,N-hexyl-carbamyloxy)-α-methyl-N'-methyl, N'-propargyl phenethylamine mesylate]	3.1	> 50	> 1000	3.4 µmol/kg	>430 µmol/kg	20	
C#CCN(C)C(C)Cc1cccc(OC(=O)N(C)CCC)c1 (racemic) [Compound 35]	50	> 200					
CN(C)C(=O)Oc1cccc(CCN)c1 [Compound 1]	0.31					100	
CCCC(C)C1(CC)C(=O)NC(=O)NC1=O (centres unmarked) [Nembutal, sodium pentobarbital, reference compound]							Protection (% of control) (mice; 40 mg/kg, 30 min before hypoxia): 253±200 % of control
CN1C(=O)CN=C(c2ccccc2)c2cc(Cl)ccc21 [Diazepam, diazepam, reference compound]							Protection (% of control) (mice; 10 mg/kg, 30 min before hypoxia): 316±78 % of control
C#CCN(C)C(C)Cc1cccc(OC(=O)N(C)C2CCCCC2)c1 (racemic) [Compound 28, (rac)-3-(N-methyl,N-cyclohexyl-carbamyloxy)-α-methyl-N'-methyl, N'-propargyl phenethylamine HCl]	11.5	21	2000	1.75 µmol/kg	109 µmol/kg	1.7	Time to peak activity t (whole brain AChE; AChE inhibition): 60 min; selectivity ratio [2]: > 47
C#CCNC(C)Cc1cccc(OC(=O)N(C)C2CCCCC2)c1 (centres unmarked) [Compound 36]	3.4	> 50					
C#CCN(C)[C@@H](C)Cc1cccc(OC(=O)N(C)CCCCCC)c1 [Compound 38, (S)-3-(N-methyl, N-hexyl-carbamyloxy)-α-methyl-N'-methyl,N'-propargyl phenethylamine ethanesulfonate]	3.1	> 50					
C#CCNC(C)Cc1cccc(OC(=O)N(C)CCC)c1 (racemic) [Compound 19, (rac)-3-(N-methyl,N-propyl-carbamyloxy)-α-methyl-N'-propargyl phenethylamine HCl]	20	170	1300	1.5 µmol/kg	>70 µmol/kg	14.6	Time to peak activity t (whole brain AChE; AChE inhibition): 30 to 60 min; selectivity ratio [2]: 7.6; Protection (% of control) (mice; 25 mg/kg sc, 60 min before hypoxia): 169±50 % of control; Protection (% of control) (mice; 50 mg/kg sc, 60 min before hypoxia): 309±253 % of control; Protection (% of control) (mice; 75 mg/kg sc, 60 min before hypoxia): 773±228 % of control
CCN(C)C(=O)Oc1cccc(CCNC)c1 [Compound 5]	20.8			>>160 µmoles/kg	>>160 µmoles/kg	25	
C#CC(C)NCCc1cccc(OC(=O)N(C)C)c1 (centres unmarked) [Compound 29]	0.15	2.5		>>12.5 µmoles/kg	>>12.5 µmoles/kg		
CNCCc1cccc(OC(=O)N(C)C)c1 [Compound 3]	0.31	39.2	57.7			50	Time to peak activity t (whole brain AChE; AChE inhibition): 10 min; Time to return to 50% of peak t (whole brain AChE; AChE inhibition): 30 min; selectivity ratio [2]: 1.5
CCN(C)C(=O)Oc1cccc(CCN)c1 [Compound 4]	48.4					200	
